Laboratory results taken from patent publication US12485132B2, “GPX4 inhibitors and senolytic compounds and uses thereof” (Rubedo Life Sciences, Inc., priority 2023, dated 2025).
pIC50: −log10 of the molar value.

Columns and labels:
[1] = test system: senescent A549 cells; assay: Senescence assay: viability of senescent A549 cells; format: cell-based; conditions: Homo sapiens, 24-72 hours incubation, viability by CellTiter-Glo or XTT, read-out: Absolute IC50 average A549_SEN IC50
Outline: (§1)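 A549 and HEPG2 cells made senescent by sublethal chemotherapy (bleomycin, gemcitabine, doxorubicin or 5-fluorouridine) plus recovery, verified by low EdU and high SA-β-Gal. Ten-point duplicate dosing for 24-72 h; viability by CellTiter-Glo or XTT versus untreated cells; absolute IC50 from four-parameter Hill fit.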

[2] = target: T1, GPX4 (Mus musculus, UniProt O70325); assay: Electrophoretic gel mobility shift of GPX4 in skin of treated mice (target engagement); format: in vivo; conditions: skin of BALB/c mice exposed to mitomycin C; 24 hr treatment
T1 construct: tissue Charles River Laboratories; host or cells: skin of BALB/c mice
T1 sequence (O70325 whole entry): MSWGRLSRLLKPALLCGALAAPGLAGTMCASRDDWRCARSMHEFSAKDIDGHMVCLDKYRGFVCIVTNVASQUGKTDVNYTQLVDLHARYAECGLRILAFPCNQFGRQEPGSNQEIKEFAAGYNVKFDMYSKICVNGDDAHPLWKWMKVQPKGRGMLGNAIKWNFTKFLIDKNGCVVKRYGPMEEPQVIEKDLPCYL
Protocol: An electrophoretic gel mobility shift assay of GPX4 was applied to determine the level of target engagement of compound 32 as a direct biomarker in tissues. For example, target engagement of compound 32 was assessed in the skin of mice exposed to mitomycin C, a potent inducer of cellular senescence. Following 24 hr treatment with compound 32, the skin of treated BALB/c mice (Charles River Laboratories) was collected and lysed by IGEPAL CA-630 and sodium dodecyl sulfate (SDS) in the presence of a protease inhibitor cocktail (4693132001, Roche) and benzonase (E1014, Sigma-Aldrich). The soluble protein fraction was isolated and heat-denatured in the presence of dithiothreitol (DTT). Proteins were electrophoretically separated using a Bis-Tris protein gel with 12% polyacrylamide concentration. Following the transfer of proteins to a PVDF membrane, the membrane was probed with an anti-GPX4 monoclonal antibody (ab125066, Abcam) and anti-beta-Actin (4970, Cell Signaling Technology), followed by an anti-rabbit IgG HRP conjugated antibody (31460, ThermoFisher). Chemiluminescent following HRP substrate addition (34580, ThermoFisher) was detected by the ChemiDoc XRS+System (BioRad).

[3] = test system: A549 cells; assay: Lipid peroxidation assay by flow cytometry (BODIPY 581/591 C11); format: cell-based, human; conditions: 0.02, 0.2 and 2 μm, 18.5 hours
Protocol: Inhibition of the cellular activity of GPX4 can be estimated by changes in lipid peroxidation levels that can be detected by the oxidation of BODIPY 581/591 C11, a ratiometric fluorescent indicator reacting with free radicals produced during membrane peroxidation (Drummen et al., Free Radic Biol Med 2002 33 (4): 473-90; and Martinez et al., Methods Mol Biol 2020 2018:125-130). For a lipid peroxidation assay by flow cytometry, A549 cells were seeded at 333,000 cells per well in 12-well plates. On the following day, culture media was replaced with 1 mL media containing either DMSO or compound 32 (0.02, 0.2 and 2 μm), and cultures were incubated at 37° C. for 18.5 hours. Thirty minutes before the end of the incubation period, 2 μm BODIPY 581/591 C11 (D3861, Invitrogen) was added to cells. Following cell collection by trypsinization, cells were subjected to flow cytometry analysis (BD FACSAria), and gated for the live cell population, which was analyzed for fluorescence signal associated with the oxidized state of BODIPY 581/591 C11. The results are illustrated in FIG. 4.

[4] = test system: senescent HEPG2 cells; assay: Senescence assay: viability of senescent HEPG2 cells; format: cell-based; conditions: Homo sapiens, 24-72 hours incubation, viability by CellTiter-Glo or XTT, read-out: Absolute IC50 average HEPG2_SEN IC50
Outline: as §1

Q: `C#CC(F)(F)[C@]1(O)CC[C@H]2[C@@H]3CCC4=CC(=NNC(=O)NC5CC5)CCC4=C3[C@H](c3ccc(C4CC4)cc3)C[C@@]21C` [Compound 32, N-cyclopropyl-2-((8S,11S,13S,14S,17S)-11-(4-cyclopropylphenyl)-17-(1,1-difluoroprop-2-yn-1-yl)-17-hydroxy-13-methyl-1,2,6,7,8,11,12,13,14,15,16,17-dodecahydro-3H-cyclopenta[a]phenanthren-3-ylidene)hydrazine-1-carboxamide] was tested. Which pIC50 [1] did it give?
A: 8.00 to 10.00

Q: What about the “GPX4 band shift in skin (target engagement)” value [2] of the same molecule?
A: slower migrating band for GPX4 was observed

Q: What about the “cellular lipid peroxidation (oxidized BODIPY 581/591 C11 signal)” value [3] of the same molecule?
A: induced markers of cellular lipid peroxidation

Q: What about the pIC50 [4] of the same molecule?
A: 8.00 to 10.00
